Measured values taken from ChEMBL document CHEMBL1201862, “PubChem BioAssay data set” (2004).
Blank lines part the entries; values can stand above or below the molecule they belong to. Active and inactive are the calls of the source. Unless noted, the calls are words filed in the database; no cut-off is given here.

Tests used:
[1] = IC50 of Artemis nuclease activity blockers – biochemical, fluorescence intensity, dose response (AID 720701); assay type: functional;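 further: Artemis endonuclease enzyme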
Leucine aminopeptidase = molecular target: T1, Leucine aminopeptidase (Plasmodium falciparum 3D7, UniProt Q8IL11); experiment: P. falciparum M17LAP inhibitors, primary screen, biochemical, fluorogenic H-Leu-NHMec substrate, 1536-well (AID 1619); assay type: functional
T1 sequence (Q8IL11 whole entry): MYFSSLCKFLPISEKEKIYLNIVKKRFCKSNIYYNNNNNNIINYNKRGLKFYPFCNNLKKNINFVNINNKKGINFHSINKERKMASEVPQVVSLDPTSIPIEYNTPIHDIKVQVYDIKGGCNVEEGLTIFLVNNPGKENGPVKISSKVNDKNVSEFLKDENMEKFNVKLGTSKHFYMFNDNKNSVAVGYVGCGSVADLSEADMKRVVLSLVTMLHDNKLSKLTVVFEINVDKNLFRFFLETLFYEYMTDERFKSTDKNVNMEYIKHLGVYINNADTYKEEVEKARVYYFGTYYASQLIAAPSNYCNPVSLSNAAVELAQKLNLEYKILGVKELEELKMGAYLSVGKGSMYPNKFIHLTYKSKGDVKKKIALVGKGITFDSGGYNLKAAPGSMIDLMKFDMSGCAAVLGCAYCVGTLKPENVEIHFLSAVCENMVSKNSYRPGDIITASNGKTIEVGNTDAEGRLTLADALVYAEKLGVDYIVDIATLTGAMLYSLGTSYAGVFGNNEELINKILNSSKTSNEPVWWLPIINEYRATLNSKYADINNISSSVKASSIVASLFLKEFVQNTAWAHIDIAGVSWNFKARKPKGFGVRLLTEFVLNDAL

Aminopeptidase N = molecular target: T2, Aminopeptidase N (Plasmodium falciparum FcB1/Columbia, UniProt O96935); experiment: malaria alanyl aminopeptidase activity blockers – biochemical, fluorogenic H-Leu-NHMec substrate, 1536-well (AID 1445); design: species or system Plasmodium falciparum 3D7, 3D7
T2 sequence (O96935 whole entry): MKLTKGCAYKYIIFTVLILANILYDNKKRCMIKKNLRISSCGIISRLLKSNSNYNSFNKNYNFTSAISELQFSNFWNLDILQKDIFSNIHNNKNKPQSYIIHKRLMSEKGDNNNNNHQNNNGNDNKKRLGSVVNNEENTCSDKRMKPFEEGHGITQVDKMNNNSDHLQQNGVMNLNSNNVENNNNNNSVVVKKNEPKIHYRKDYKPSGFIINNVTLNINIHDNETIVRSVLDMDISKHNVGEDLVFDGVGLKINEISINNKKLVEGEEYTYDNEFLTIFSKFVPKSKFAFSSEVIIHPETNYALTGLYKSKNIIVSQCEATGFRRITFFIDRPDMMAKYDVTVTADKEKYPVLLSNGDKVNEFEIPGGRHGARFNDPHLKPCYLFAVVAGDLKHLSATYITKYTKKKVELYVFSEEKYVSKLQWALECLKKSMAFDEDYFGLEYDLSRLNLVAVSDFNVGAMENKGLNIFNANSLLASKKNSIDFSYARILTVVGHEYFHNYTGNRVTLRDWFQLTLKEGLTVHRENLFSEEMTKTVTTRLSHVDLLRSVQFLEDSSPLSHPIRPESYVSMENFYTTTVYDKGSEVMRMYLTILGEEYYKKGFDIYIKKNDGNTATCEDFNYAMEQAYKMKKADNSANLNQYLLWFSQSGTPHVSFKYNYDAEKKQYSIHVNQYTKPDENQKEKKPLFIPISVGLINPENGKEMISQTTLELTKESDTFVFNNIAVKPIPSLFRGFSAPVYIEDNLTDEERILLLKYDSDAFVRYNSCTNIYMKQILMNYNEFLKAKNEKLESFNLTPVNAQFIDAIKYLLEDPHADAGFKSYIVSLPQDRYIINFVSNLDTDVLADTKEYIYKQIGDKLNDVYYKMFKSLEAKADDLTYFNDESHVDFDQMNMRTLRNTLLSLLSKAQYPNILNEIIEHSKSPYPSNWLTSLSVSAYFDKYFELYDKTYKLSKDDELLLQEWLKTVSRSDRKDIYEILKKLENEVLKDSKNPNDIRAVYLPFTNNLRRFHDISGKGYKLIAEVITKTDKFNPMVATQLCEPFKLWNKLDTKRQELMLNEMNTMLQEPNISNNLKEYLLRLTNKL

[2] = HIV-1 Vif–A3G interaction blockers – biochemical, TR-FRET, GST-Vif 1-94, biotin-A3G peptide, dose response retest, primary screen (AID 1117319); assay type: functional;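 further: TR-FRET signal of purified GST-Vif binding a biotinylated A3G peptide; inhibitors lower the FRET signal by blocking Vif and A3G binding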
D(2) dopamine receptor [3] = molecular target: T3, D(2) dopamine receptor (Homo sapiens, UniProt P14416); experiment: Counterscreening of D4 Antagonists against Dopamine 2S (Human), Confirmatory Assay.; assay type: functional
T3 sequence (P14416 whole entry, canonical isoform): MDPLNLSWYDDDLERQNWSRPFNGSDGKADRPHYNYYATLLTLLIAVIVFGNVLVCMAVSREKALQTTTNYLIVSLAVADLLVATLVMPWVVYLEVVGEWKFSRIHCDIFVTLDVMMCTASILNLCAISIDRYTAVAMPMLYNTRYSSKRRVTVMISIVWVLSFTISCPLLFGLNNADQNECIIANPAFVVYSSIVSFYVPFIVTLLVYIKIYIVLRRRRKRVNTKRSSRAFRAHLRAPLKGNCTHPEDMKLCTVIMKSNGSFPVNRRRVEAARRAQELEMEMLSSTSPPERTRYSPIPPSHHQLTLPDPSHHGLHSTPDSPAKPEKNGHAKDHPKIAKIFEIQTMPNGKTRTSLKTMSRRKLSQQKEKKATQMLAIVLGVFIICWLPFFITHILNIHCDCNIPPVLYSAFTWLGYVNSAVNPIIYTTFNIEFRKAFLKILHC

D(2) dopamine receptor [4] = molecular target: T3, D(2) dopamine receptor; experiment: human DRD2 long isoform antagonists – cell-based, D2L isoform, counter-screen for D4 antagonist project, confirmation (AID 743377); assay type: functional
D(1A) dopamine receptor = D(1A) dopamine receptor (Homo sapiens, UniProt P21728); experiment: Counterscreening of D4 Antagonists against Dopamine 1 (Human), Confirmatory Assay.; assay type: functional
Sequence of D(1A) dopamine receptor (P21728 whole entry): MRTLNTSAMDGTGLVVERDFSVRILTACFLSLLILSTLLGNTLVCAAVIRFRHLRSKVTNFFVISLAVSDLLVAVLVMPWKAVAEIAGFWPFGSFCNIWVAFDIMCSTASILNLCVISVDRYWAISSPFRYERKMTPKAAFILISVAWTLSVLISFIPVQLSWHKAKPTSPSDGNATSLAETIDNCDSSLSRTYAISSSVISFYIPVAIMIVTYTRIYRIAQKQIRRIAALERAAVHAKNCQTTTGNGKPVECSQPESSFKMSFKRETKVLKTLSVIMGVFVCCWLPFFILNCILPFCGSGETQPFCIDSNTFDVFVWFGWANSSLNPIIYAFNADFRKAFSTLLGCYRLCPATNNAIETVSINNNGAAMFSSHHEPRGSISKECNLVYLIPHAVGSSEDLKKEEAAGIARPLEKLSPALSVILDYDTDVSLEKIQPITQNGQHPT

D(3) dopamine receptor = D(3) dopamine receptor (Homo sapiens, UniProt P35462); experiment: Counterscreening of D4 Antagonists against Dopamine 3 DRD3 (Human), Confirmatory Assay.; assay type: functional
Sequence of D(3) dopamine receptor (P35462 whole entry): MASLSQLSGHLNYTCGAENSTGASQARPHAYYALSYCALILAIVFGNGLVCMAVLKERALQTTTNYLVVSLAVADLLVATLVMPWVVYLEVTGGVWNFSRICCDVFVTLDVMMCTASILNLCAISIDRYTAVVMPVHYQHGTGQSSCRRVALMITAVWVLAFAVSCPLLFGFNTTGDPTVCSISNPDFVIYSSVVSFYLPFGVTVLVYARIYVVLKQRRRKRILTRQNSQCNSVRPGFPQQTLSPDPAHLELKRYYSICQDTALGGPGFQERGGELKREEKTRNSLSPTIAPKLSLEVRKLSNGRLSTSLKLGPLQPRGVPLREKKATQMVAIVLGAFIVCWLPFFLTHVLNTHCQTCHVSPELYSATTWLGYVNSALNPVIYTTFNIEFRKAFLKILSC

D(1B) dopamine receptor = D(1B) dopamine receptor (Homo sapiens, UniProt P21918); experiment: Counterscreening of D4 Antagonists against Dopamine 5 DRD5 (Human), Confirmatory Assay.; assay type: functional
Sequence of D(1B) dopamine receptor (P21918 whole entry): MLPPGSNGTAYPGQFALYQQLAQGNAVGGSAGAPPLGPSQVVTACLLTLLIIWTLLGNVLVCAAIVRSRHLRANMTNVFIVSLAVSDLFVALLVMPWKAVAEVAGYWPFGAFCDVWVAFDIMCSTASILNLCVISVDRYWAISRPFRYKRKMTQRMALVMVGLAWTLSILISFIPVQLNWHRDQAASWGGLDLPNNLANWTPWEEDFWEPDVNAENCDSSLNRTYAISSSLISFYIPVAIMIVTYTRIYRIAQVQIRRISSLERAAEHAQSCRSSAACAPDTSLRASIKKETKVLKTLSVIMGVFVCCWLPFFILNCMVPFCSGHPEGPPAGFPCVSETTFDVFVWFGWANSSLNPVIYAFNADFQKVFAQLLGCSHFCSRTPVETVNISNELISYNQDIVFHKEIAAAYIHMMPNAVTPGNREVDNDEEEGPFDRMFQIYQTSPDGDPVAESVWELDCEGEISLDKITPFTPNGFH

[5] = molecular target: G-protein coupled receptor 183 (Homo sapiens, UniProt P32249); experiment: SAR confirmation of small molecule antagonists of the EBI2 receptor via a luminescent beta-arrestin assa.; assay type: functional
Sequence of G-protein coupled receptor 183 (P32249 whole entry): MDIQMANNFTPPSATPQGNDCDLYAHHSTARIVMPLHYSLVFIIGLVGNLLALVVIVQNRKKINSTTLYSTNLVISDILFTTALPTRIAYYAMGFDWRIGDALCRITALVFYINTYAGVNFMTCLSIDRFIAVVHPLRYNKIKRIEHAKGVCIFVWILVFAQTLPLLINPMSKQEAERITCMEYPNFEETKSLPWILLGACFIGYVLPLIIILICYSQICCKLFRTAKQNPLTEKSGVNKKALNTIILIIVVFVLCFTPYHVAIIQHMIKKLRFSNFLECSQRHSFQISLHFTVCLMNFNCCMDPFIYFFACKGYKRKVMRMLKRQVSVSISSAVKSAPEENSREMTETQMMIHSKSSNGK

[6] = Dd2 parasite growth inhibition in erythrocytes – SYBR Green, dry powder samples, set 9, dose response (AID 1159568); assay type: functional, cell-based

IC50 [2]: > 100 µM (active)
Compound: COc1ccc(Nc2nc(N)nc(CSC(=S)N3CCN(c4ccccc4)CC3)n2)cc1

IC50 [5]: 3.43 nM (active)
Compound: O=C(/C=C/c1ccc(F)cc1)N1CCN(S(=O)(=O)c2ccc(Br)cc2)CC1

Second part, the molecule before the results:

Compound: O=C(Cc1ccsc1-c1ccccc1)NO
IC50 [1]: 1.4 µM (active) | IC50 (Leucine aminopeptidase): 43.4 µM (active) | IC50 (Aminopeptidase N): 10.4 µM (active)

Compound: COc1ccc(CN2CCO[C@@H](CCc3ccccc3)C2)cc1
IC50 (D(2) dopamine receptor [3]): 20 µM (inactive) | IC50 (D(2) dopamine receptor [4]): 16.5 µM (active) | IC50 (D(1A) dopamine receptor): 20 µM (inactive) | IC50 (D(3) dopamine receptor): 8.17 µM (active) | IC50 (D(1B) dopamine receptor): 20 µM (inactive)

Compound: COc1ccc(NC(=O)N2CCCCN3[C@H](CO)[C@@H](c4ccc(-c5ccccc5F)cc4)[C@H]3C2)cc1
AC50 [6]: 1.81 µM (active)
